Tested on: Streptomyces lividans TK24(pANT195)
Assay: Viability of doxA-transformed culture incubated with daunomycin
Format: cell-based
Method: Cultures of S. lividans TK24 containing plasmid pANT195 and control cultures of S. lividans TK24 containing plasmid pANT849 were grown on R2YE agar medium containing 10 μg/ml of thiostrepton in standard 100 mm×15 mm plastic petri dishes for 5 days at 30° C., at which time the entire cultures had sporulated. The spores from one entire petri plate were used to inoculate 50 ml of modified YEME medium in 250 ml erlenmeyer flasks. Then 10 μg/ml thiostrepton in DMSO were added to the medium. The thiostrepton was added as selective pressure to maintain the plasmids. The cultures were grown for 48 hours at 30° C. with rotary shaking at 250 rpm, one inch throw on the shaker. After 48 hours, a 1.5 ml sample was removed for plasmid analysis to ensure the presence and size of the insert DNA containing the doxA gene using a "mini-prep" procedure according to Carter, M. J., and I. D. Milton, (1993), "An Inexpensive and Simple Method for DNA Purification on Silica Particles," Nucleic Acids Res., Vol. 21, page 1044. Restriction endonuclease digestion with BspEI and agarose gel electrophoresis generated 1.7 kbp, 2.2 kbp, and 3.14 kbp fragments which indicated an intact plasmid and insert. Then a 10 μL solution containing 100 μg of filter sterilized daunomycin-HCl in distilled water was added to the cultures for a final concentration of 2.0 μg of daunomycin per ml of culture broth. Incubation was continued for 72 hours.
The procedure of Example 1 was repeated, with the following exceptions. The cultures were grown at 28° C. rather than 30° C., for 48 hours. After 48 hours of growth, 500 μg of daunomycin-HCl were added to the cultures for a final concentration of 10.0 μg/ml of daunomycin followed by further incubation for 36 hours, instead of 72 hours.
A 50 ml culture of Streptomyces lividans TK24(pANT195) culture was prepared as in Example 1. […] The cultures were incubated for 48 hours and then extracted as described in Example 1 and analyzed by HPLC and TLC. […]

With `COc1cccc2c1C(=O)c1c(O)c3c(c(O)c1C2=O)C[C@@](O)(C(C)=O)C[C@@H]3O[C@H]1C[C@H](N)[C@H](O)[C@H](C)O1` [daunomycin] the “state of the cultures after incubation with daunomycin” value (2 μg/ml of daunomycin, cultures of Examples 1 and 2) was “fully viable”, the “toxicity to the host” value (16.7 μg/ml of daunomycin, about 8-fold concentrated mycelia in MOPS buffer pH 7.2 (Example 10)) was “toxic to the host” and the “state of the doxA transformed culture at the end of incubation” value (22.2 μg/ml daunomycin, 48 hours, 28° C., YEME medium (Example 3)) was “virtually dead”.

From patent publication US5976830A, “Methods of producing doxorubicin” (priority 1996, dated 1999)
